# Assay results published in patent US9034895B2, “Composition and methods for treating glioblastoma” (University of Washington Through its Center for …, priority 2010, dated 2015).
# Target: T1, CB1 (Mus musculus, UniProt P47746)
# T1 construct: plasmids containing full coding region of mouse CB1 and CB2; expressed in transfected cells
# Assay: Radioligand competition binding, [3H]-CP55940, CB1-expressing HEK293 membranes
# Experimental: Stable CB1 and CB2 expressing HEK293 cell lines were generated using plasmids containing full coding region of mouse CB1 and CB2.
# Fragments were amplified from total RNA of cell lines by reverse transcriptase-polymerase chain reaction (RT-PCR). Sequence was confirmed and the fragment was cloned into the EcoRI site of the pIRES2-eGFP-express vector. Cells were grown to approximately 80% confluence in 10 cm cell culture dishes, transfected with the cDNA pIRES-eGFP-vector containing the murine CB1 or CB2 receptor using LipofectAMINE™ 2000 reagent in the serum-free media Opti-MEM 1 according to the manufacturer's description. Cells were subject to FACS sorting 48 h after transfection and single cell sorted based on dsRed expression into 96-well plates. Of the dsRed expressing positive clones, 3 were validated for CB1 and CB2 protein expression by radioligand binding analysis (methods discussed below).
# Cells were grown to 90% confluence, rinsed twice with 1×PBS and stored at −80° C. until further use. To prepare crude cellular membrane fractions, dishes were removed from −80° C. and thawed at room temperature for 5 min. Once thawed, cells were lysed with ice-cold homogenization buffer (50 mM Tris, 1 mM EDTA, 3 mM MgCl2) and gently scraped from the dish. Total cell lysates from 3-5 dishes were collected on ice in 3 ml of ice-cold homogenization buffer. Cells were homogenized at 6,500 rpm (PRO Scientific, Oxford, Conn.) twice for 10 sec and centrifuged at 11,500 rpm for 20 min at 4° C. Supernatants were discarded and cell pellets were resuspended in homogenization buffer and triturated 10 times in ice-cold homogenization buffer. Crude cellular membrane homogenates were stored at −80° C. until further use. On the day of experiments, frozen homogenates were thawed at room temperature, gently triturated 10 times and subsequently dounce homogenized in a 7 ml glass tissue grinder (Wheaton Science Products, Millville, N.J.) by 5 strokes while on ice. […]
# T1 sequence (P47746 whole entry): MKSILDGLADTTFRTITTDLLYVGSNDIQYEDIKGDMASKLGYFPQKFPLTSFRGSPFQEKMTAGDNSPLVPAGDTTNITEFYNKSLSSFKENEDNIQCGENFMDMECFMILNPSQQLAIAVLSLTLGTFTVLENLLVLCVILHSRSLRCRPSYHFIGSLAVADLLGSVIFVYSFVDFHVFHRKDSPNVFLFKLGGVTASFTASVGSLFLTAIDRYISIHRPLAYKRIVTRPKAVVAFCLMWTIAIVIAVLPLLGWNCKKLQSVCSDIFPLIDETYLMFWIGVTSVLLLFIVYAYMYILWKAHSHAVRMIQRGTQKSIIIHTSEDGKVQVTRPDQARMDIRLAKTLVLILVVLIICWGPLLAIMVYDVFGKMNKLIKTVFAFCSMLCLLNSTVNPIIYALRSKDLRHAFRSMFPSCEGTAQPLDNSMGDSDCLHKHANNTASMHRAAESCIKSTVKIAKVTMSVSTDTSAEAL
smiles,measurement,setting,value
"CCn1c(C)c(C(=O)c2ccc(C)c3ccccc23)c2ccccc21 [JWH-451, 1-Ethyl-2-methyl-3-(4-methyl-1-napthoyl)indole]",competition for [3H]-CP55940 binding at CB1,FIG. 2 (CB1 not shown),does not
same,lower affinity at CB1 receptors than WIN55212-2,relative to WIN55212-2,100 fold
